# Assays:
# [1] = test system: patients with advanced solid tumors; experiment: Phase 1 dose-escalation: safety, DLT and MTD
# Protocol: The study consisted of a screening period to determine patient eligibility, a 14-day cycle in which CEP-9722 was administered once daily as monotherapy, and subsequent 28-day cycles in which CEP-9722 and temozolomide were administered as combination therapy. In cycle 1, the first patient in each dosing cohort received CEP-9722 on days 1, 3, 4, and 5, while other patients in each cohort received CEP-9722 on days 1–5. In cycle 2, patients received CEP-9722 and temozolomide on days 1–5 (Supplemental Fig.). CEP-9722 was escalated from a starting dose of 150 mg/day up to 1,000 mg/day, and temozolomide was given at the dose of 150 mg/m^2/day at all dose levels of CEP-9722. Both CEP-9722 and temozolomide were administered in the fasted state.
# Patients were enrolled in cohorts of 3. Enrollment in the next cohort commenced when the third patient in the current cohort had completed day 28 of cycle 2 without a dose-limiting toxicity (DLT).
# Safety was assessed using adverse event data, clinical laboratory test results, vital signs measurement, ECG findings, physical examination findings, ECOG performance status, and concomitant medication usage.
# advanced solid tumors = experiment: Best tumor response according to RECIST 1.0; assay type: in vivo, human
# Protocol: Tumor assessment was performed within 4 weeks before the first dose of study drug and within the fourth week of cycle 2 using computed tomography or magnetic resonance imaging with contrast. In patients who continued treatment, tumor assessment was performed every 2 cycles and at the end of treatment visit, at the discretion of the investigator.
# [2] = Plasma pharmacokinetics of CEP-8983 after oral CEP-9722; assay type: in vivo, human; conditions: patients
# Protocol: Pharmacokinetic serum samples were collected on day 1 of cycle 1 pre-dose and 0.5, 1, 2, 3, 4, 6, 8, 10, and 24 h post-dose; and on day 5 of cycle 1 and cycle 2 pre-dose, and 0.5, 1, 2, 3, 4, 6, 8, 10, 24, and 48 h post-dose. Urine samples were obtained on day 1 of cycle 1 during 4 intervals in the 24 h following study drug administration. Pharmacokinetic parameters (area under the plasma drug concentration–time curve from time 0 to infinity [AUC0–∞], AUC from time 0 to the time of the last measurable drug concentration [AUC0–t], AUC for 1 dosing interval [AUCτ] following multiple doses, maximum observed plasma concentration [C max], and time to maximum observed plasma concentration [T max]) were summarized at each visit (day 1 of cycle 1 and day 5 of cycles 1 and 2) using descriptive statistics.
# [3] = test system: PARP in peripheral blood mononuclear cells (PBMCs); experiment: PAR ELISA in PBMCs (PARP inhibition, pharmacodynamics); assay type: in vivo, human
# Protocol: Pharmacodynamics were assessed by the measurement of PAR concentrations in PBMCs. PBMCs were isolated at site, and the frozen cell pellet was sent to a central laboratory (Trevigen Inc., Gaithersburg, MD, USA) for processing and analysis by PAR enzyme-linked immunosorbent assay (ELISA). Pharmacodynamic samples were collected on 2 consecutive days at screening visits and on days 1, 5 (pre-dose and 2 h [cycle 1 only], 6 h, and 24 h post-dose), and 8 (at the time of hematology laboratory testing). The PAR concentrations in the 2 screening samples and the day 1 pre-dose sample were averaged to provide a baseline value, and the percentage inhibition from baseline was calculated in the post-dose samples.
# [4] = test system: breast and ovarian cancer patients with BRCA mutations; parameters: method as in PMID 20609467, PMID 20609468; conditions: monotherapy; cited from earlier work
# [5] = test system: patients with metastatic melanoma; conditions: phase 2, metastatic melanoma, combination with temozolomide; cited from earlier work
# [6] = cycle 1, single-agent CEP-9722, total, all dose levels (N=26)
# [7] = cycles ≥2, CEP-9722 combined with temozolomide, 150 mg/day (N=3)
# [8] = cycles ≥2, CEP-9722 combined with temozolomide, 300 mg/day (N=6)
# [9] = cycles ≥2, CEP-9722 combined with temozolomide, 500 mg/day (N=3)
# [10] = cycles ≥2, CEP-9722 combined with temozolomide, 750 mg/day (N=11)
# [11] = cycles ≥2, CEP-9722 combined with temozolomide, 1,000 mg/day (N=3)
# [12] = cohort 1, 150 mg/day, 2 evaluated
# [13] = cohort 2, 300 mg/day, 6 evaluated
# [14] = cohort 3, 500 mg/day, 3 evaluated
# [15] = cohort 4, 750 mg/day, 9 evaluated
# [16] = cohort 5, 1,000 mg/day, 2 evaluated
structure (smiles),measurement,setting,value
COc1cccc2[nH]c3c4c(c5c(c3c12)C(=O)N(CN1CCN(C)CC1)C5=O)CCC4 [CEP-9722],"Anorexia (treatment-related adverse event, all grades)",[1]; [6],3 (12) N patients (%)
same,"Asthenia (treatment-related adverse event, all grades)",[1]; [6],5 (19) N patients (%)
same,"Blood creatinine phosphokinase increased (treatment-related adverse event, all grades)",[1]; [6],2 (8) N patients (%)
same,"Constipation (treatment-related adverse event, all grades)",[1]; [6],2 (8) N patients (%)
same,"Diarrhea (treatment-related adverse event, all grades)",[1]; [6],7 (27) N patients (%)
same,"Fatigue (treatment-related adverse event, all grades)",[1]; [6],4 (15) N patients (%)
same,"Headache (treatment-related adverse event, all grades)",[1]; [6],10 (38) N patients (%)
same,"Nausea (treatment-related adverse event, all grades)",[1]; [6],12 (46) N patients (%)
same,"Vomiting (treatment-related adverse event, all grades)",[1]; [6],7 (27) N patients (%)
same,"Anemia (treatment-related adverse event, all grades)",[1]; [7],0 N patients (%)
same,"Anorexia (treatment-related adverse event, all grades)",[1]; [7],0 N patients (%)
same,"Aspartate aminotransferase increased (treatment-related adverse event, all grades)",[1]; [7],0 N patients (%)
same,"Asthenia (treatment-related adverse event, all grades)",[1]; [7],0 N patients (%)
same,"Constipation (treatment-related adverse event, all grades)",[1]; [7],0 N patients (%)
same,"Diarrhea (treatment-related adverse event, all grades)",[1]; [7],0 N patients (%)
same,"Dyspepsia (treatment-related adverse event, all grades)",[1]; [7],0 N patients (%)
same,"Fatigue (treatment-related adverse event, all grades)",[1]; [7],0 N patients (%)
same,"Gamma-glutamyltransferase increased (treatment-related adverse event, all grades)",[1]; [7],0 N patients (%)
same,"Anemia (treatment-related adverse event, all grades)",[1]; [8],0 N patients (%)
same,"Anorexia (treatment-related adverse event, all grades)",[1]; [8],1 (17) N patients (%)
same,"Aspartate aminotransferase increased (treatment-related adverse event, all grades)",[1]; [8],0 N patients (%)
same,"Asthenia (treatment-related adverse event, all grades)",[1]; [8],0 N patients (%)
same,"Constipation (treatment-related adverse event, all grades)",[1]; [8],0 N patients (%)
same,"Diarrhea (treatment-related adverse event, all grades)",[1]; [8],0 N patients (%)
same,"Dyspepsia (treatment-related adverse event, all grades)",[1]; [8],0 N patients (%)
same,"Gamma-glutamyltransferase increased (treatment-related adverse event, all grades)",[1]; [8],0 N patients (%)
same,"Anemia (treatment-related adverse event, all grades)",[1]; [9],1 (33) N patients (%)
same,"Anorexia (treatment-related adverse event, all grades)",[1]; [9],0 N patients (%)
same,"Aspartate aminotransferase increased (treatment-related adverse event, all grades)",[1]; [9],1 (33) N patients (%)
same,"Asthenia (treatment-related adverse event, all grades)",[1]; [9],2 (67) N patients (%)
same,"Constipation (treatment-related adverse event, all grades)",[1]; [9],0 N patients (%)
same,"Diarrhea (treatment-related adverse event, all grades)",[1]; [9],0 N patients (%)
same,"Dyspepsia (treatment-related adverse event, all grades)",[1]; [9],0 N patients (%)
same,"Fatigue (treatment-related adverse event, all grades)",[1]; [9],0 N patients (%)
same,"Gamma-glutamyltransferase increased (treatment-related adverse event, all grades)",[1]; [9],1 (33) N patients (%)
same,"Anemia (treatment-related adverse event, all grades)",[1]; [10],1 (9) N patients (%)
same,"Anorexia (treatment-related adverse event, all grades)",[1]; [10],1 (9) N patients (%)
same,"Aspartate aminotransferase increased (treatment-related adverse event, all grades)",[1]; [10],1 (9) N patients (%)
same,"Asthenia (treatment-related adverse event, all grades)",[1]; [10],4 (36) N patients (%)
same,"Diarrhea (treatment-related adverse event, all grades)",[1]; [10],3 (27) N patients (%)
same,"Dyspepsia (treatment-related adverse event, all grades)",[1]; [10],2 (18) N patients (%)
same,"Fatigue (treatment-related adverse event, all grades)",[1]; [10],4 (36) N patients (%)
same,"Gamma-glutamyltransferase increased (treatment-related adverse event, all grades)",[1]; [10],2 (18) N patients (%)
same,"Anemia (treatment-related adverse event, all grades)",[1]; [11],0 N patients (%)
same,"Aspartate aminotransferase increased (treatment-related adverse event, all grades)",[1]; [11],0 N patients (%)
same,"Asthenia (treatment-related adverse event, all grades)",[1]; [11],0 N patients (%)
same,"Constipation (treatment-related adverse event, all grades)",[1]; [11],1 (33) N patients (%)
same,"Dyspepsia (treatment-related adverse event, all grades)",[1]; [11],0 N patients (%)
same,"Fatigue (treatment-related adverse event, all grades)",[1]; [11],1 N patients (%)
same,"Gamma-glutamyltransferase increased (treatment-related adverse event, all grades)",[1]; [11],0 N patients (%)
same,"abdominal pain, adverse event","[1]; human, in vivo",35%
same,"anemia, adverse event","[1]; human, in vivo",23%
same,"anorexia, adverse event","[1]; human, in vivo",35%
same,"asthenia, adverse event","[1]; human, in vivo",42%
same,"constipation, adverse event","[1]; human, in vivo",50%
same,"diarrhea, adverse event","[1]; human, in vivo",42%
same,"fatigue, adverse event","[1]; human, in vivo",31%
same,grade 3–4 lymphopenia (laboratory),"[1]; human, in vivo",5 patients
same,"headache, adverse event","[1]; human, in vivo",50%
same,"nausea, adverse event","[1]; human, in vivo",77%
same,patients with treatment-related adverse events (TRAEs),"[1]; human, in vivo",24 (92 %) patients (%)
same,recommended phase 2 dose,"[1]; human, in vivo",750 mg/day
same,"vomiting, adverse event","[1]; human, in vivo",65%
same,"Abdominal pain (treatment-related adverse event, all grades)","[1]; human, in vivo, 14 day",2 (8) N patients (%)
same,central review of ECGs,[1]; in vivo,no clinically significant abnormalities
same,patients who withdrew due to adverse events,[1]; in vivo,Four patients
same,patients with dose delays due to hematological toxicity,[1]; in vivo,three patients
same,patients with grade 3–4 laboratory hematologic toxicities,[1]; in vivo,Six patients
same,maximum tolerated dose (MTD),[1]; with temozolomide 150 mg/m^2,750 mg/day
same,Partial response,advanced solid tumors; [12],0 patients
same,Progressive disease,advanced solid tumors; [12],2 patients
same,Stable disease,advanced solid tumors; [12],0 patients
same,Partial response,advanced solid tumors; [13],0 patients
same,Progressive disease,advanced solid tumors; [13],5 patients
same,Stable disease,advanced solid tumors; [13],1 patients
same,Partial response,advanced solid tumors; [14],0 patients
same,Progressive disease,advanced solid tumors; [14],1 patients
same,Stable disease,advanced solid tumors; [14],2 patients
same,Partial response,advanced solid tumors; [15],0 patients
same,Progressive disease,advanced solid tumors; [15],8 patients
same,Stable disease,advanced solid tumors; [15],1 patients
same,Partial response,advanced solid tumors; [16],1 patients
same,Progressive disease,advanced solid tumors; [16],1 patients
same,Stable disease,advanced solid tumors; [16],0 patients
same,reduction in target lesions (RECIST) in the patient with partial response,"advanced solid tumors; melanoma patient, 1,000 mg/day with temozolomide",58%
same,duration of partial response,"advanced solid tumors; melanoma patient, 1,000 mg/day with temozolomide, first observed after 6 cycles",5.8 months
same,Progressive disease,"advanced solid tumors; total, all cohorts, 22 evaluated",17 patients
same,conversion of CEP-9722 into its active form,[2],rapid
same,PAR concentrations in PBMCs relative to baseline,"[3]; 2 and 6 h post-dose, cycle 1, without temozolomide",reduction in PAR concentrations relative to baseline was observed
same,reduction in PAR concentrations in PBMCs,"[3]; 6 h post-dose, cycle 2, with temozolomide",less marked
same,inhibitory effects on PAR production,[3]; 24 h post-dose sample,lost
O=C(c1cc(Cc2n[nH]c(=O)c3ccccc23)ccc1F)N1CCN(C(=O)C2CC2)CC1 [olaparib],RECIST responses,[4],30–40%
CNCc1ccc(-c2[nH]c3cc(F)cc4c3c2CCNC4=O)cc1 [rucaparib],patients requiring a reduction in the dose of temozolomide due to enhanced myelosuppression,[5],approximately half

# From PMC4112042, “Phase 1 dose-escalation study of the PARP inhibitor CEP-9722 as monotherapy or in combination with temozolomide in patients with solid tumors” (Cancer Chemotherapy and Pharmacology, 2014)
